# Key:
# Experiment in all cases: Greenhouse herbicidal activity assay, post-emergence
# Assay type in all cases: in vivo
# Digitaria sanguinalis = settings: Post-emergence test, rate 150 g a.i./hm^2, grade by fresh weight inhibition rate
# From the text: (§1) Post-emergence: Seeds of gramineous weeds (Echinochloa crusgalli, Echinochloa crusgalli var. zelayensis, Echinochloa phyllopogon, Eleusine indica, Digitaria sanguinalis, Leptochloa chinensis, Setaria viridis, Alopecurus japonicus Steud, Beckmannia syzigachne, Polypogon fugax, Alopecurus aequalis, Lolium multiflorum, Poa annua, Aegilops tataschii, Avena fatua, Alopecurus myosuroides, Bromus japonicus), broadleaf weeds (Eclipta prostrata, Amaranthus retroflexus, Rorippa indica, Myosoton aquaticum, Veronica didyma, Galium aparine, Solanum nigrum, Xanthium sibiricum, Conyza canadensis, Sesbania cannabina, Sagittaria trifolia), and Cyperus iria (Cyperus iria, Scirpus juncoides, Cyperus difformis, etc.) were sown in plastic pots (7 cm diameter) with nutrient soil and bottom holes. Crop seeds (including Oryza sativa subsp. indica, Oryza sativa subsp. japonica, Oryza sativa L. var. Glutinosa matsum, Triticum aestivum, Zea mays, Sorghum bicolor, Setaria italica, Glycine max, Gossypium hirsutum, Brassica napus, Arachis hypogaea) were sown in plastic pots (10 cm diameter) with nutrient soil and bottom holes. After sowing, the pots were placed in the growth chamber until the plants reached the 3-6 leaf stage for foliar spraying. Post-treatment, the materials were air-dried naturally and returned to the growth chamber. Results were assessed 14-21 days later.
# (§2) • A: Fresh weight inhibition rate≥80% to 100%; • B: Fresh weight inhibition rate[…] to <80%; • C: Fresh weight inhibition rate≥40% to <60%; • D: Fresh weight inhibition rate≥20% to <40%; • E: Fresh weight inhibition rate<20%; • NT: Not tested.
# Cyperus iria = settings: Post-emergence test, rate 150 g a.i./hm^2, grade by fresh weight inhibition rate; for pest or weed control at 150 g/ha: Cyperus iria, read-out: Control efficacy grade, Cyperus iria
# From the text: as §1, §2
# Eclipta prostrata = settings: Post-emergence test, rate 150 g a.i./hm^2, grade by fresh weight inhibition rate; for pest or weed control at 150 g/ha: Eclipta prostrata, read-out: Control efficacy grade, Eclipta prostrata
# From the text: as §1, §2
# Leptochloa chinensis = settings: Post-emergence test, rate 150 g a.i./hm^2, grade by fresh weight inhibition rate; for pest or weed control at 150 g/ha: Dinebra chinensis, read-out: Control efficacy grade, Leptochloa chinensis
# From the text: as §1, §2
# Echinochloa crusgalli = settings: Post-emergence test, rate 150 g a.i./hm^2, grade by fresh weight inhibition rate
# From the text: as §1, §2
Compound,"Control efficacy grade, Digitaria sanguinalis (Digitaria sanguinalis)","Control efficacy grade, Cyperus iria (Cyperus iria)","Control efficacy grade, Eclipta prostrata (Eclipta prostrata)","Control efficacy grade, Leptochloa chinensis (Leptochloa chinensis)","Control efficacy grade, Echinochloa crusgalli (Echinochloa crusgalli)",pest or weed control at 150 g/ha (Cyperus iria),pest or weed control at 150 g/ha (Eclipta prostrata),pest or weed control at 150 g/ha (Leptochloa chinensis),"pest or weed control at 150 g/ha (Echinochloa crusgalli; Echinochloa crus-galli, read-out: Control efficacy grade, Echinochloa crusgalli)","pest or weed control at 150 g/ha (Digitaria sanguinalis; Digitaria sanguinalis, read-out: Control efficacy grade, Digitaria sanguinalis)"
Cc1nnc(NC(=O)c2ccc(S(C)(=O)=O)c([S+]([O-])Cc3ccccc3)c2Cl)o1 (racemic) [Compound 3-68],B (Fresh weight inhibition rate≥260% to <80%),A (Fresh weight inhibition rate≥80% to 100%),A (Fresh weight inhibition rate≥80% to 100%),A (Fresh weight inhibition rate≥80% to 100%),–,–,–,–,–,–
Cc1nnc(NC(=O)c2ccc(S(C)(=O)=O)c([S+]([O-])CCCl)c2Cl)o1 (racemic) [Compound 3-213],A (Fresh weight inhibition rate≥80% to 100%),A (Fresh weight inhibition rate≥80% to 100%),–,A (Fresh weight inhibition rate≥80% to 100%),A (Fresh weight inhibition rate≥80% to 100%),–,–,–,–,–
CS(=O)(=O)c1ccc(C(=O)Nc2nnc(C3CC3)o2)c(Cl)c1[S+]([O-])C1CC1 (racemic) [Compound 3-652],A (Fresh weight inhibition rate≥80% to 100%),A (Fresh weight inhibition rate≥80% to 100%),A (Fresh weight inhibition rate≥80% to 100%),A (Fresh weight inhibition rate≥80% to 100%),–,–,–,–,–,–
CS(=O)(=O)c1ccc(C(=O)Nc2nnc(C3CC3)o2)c(Cl)c1[S+]([O-])C1CCCC1 (racemic) [Compound 3-662],A (Fresh weight inhibition rate≥80% to 100%),A (Fresh weight inhibition rate≥80% to 100%),A (Fresh weight inhibition rate≥80% to 100%),A (Fresh weight inhibition rate≥80% to 100%),–,–,–,–,–,–
CCC(C)S(=O)(=O)c1c(S(C)(=O)=O)ccc(C(=O)Nc2nonc2C)c1Cl (racemic) [Compound 4-24],A (Fresh weight inhibition rate≥80% to 100%),A (Fresh weight inhibition rate≥80% to 100%),A (Fresh weight inhibition rate≥80% to 100%),A (Fresh weight inhibition rate≥80% to 100%),–,–,–,–,–,–
CCCSc1c(S(C)(=O)=O)ccc(C(=O)N(C)c2nnnn2C)c1Cl [Compound 1-97],B (Fresh weight inhibition rate≥260% to <80%),A (Fresh weight inhibition rate≥80% to 100%),–,–,–,–,–,–,–,–
Cn1ncnc1NC(=O)c1ccc(S(C)(=O)=O)c(S(=O)(=O)CC2CC2)c1Cl [Compound 2-31],–,A (Fresh weight inhibition rate≥80% to 100%),A (Fresh weight inhibition rate≥80% to 100%),A (Fresh weight inhibition rate≥80% to 100%),A (Fresh weight inhibition rate≥80% to 100%),–,–,–,–,–
Cc1nnc(NC(=O)c2ccc(S(C)(=O)=O)c(SC(C)(C)C)c2Cl)o1 [Compound 3-32],B (Fresh weight inhibition rate≥260% to <80%),A (Fresh weight inhibition rate≥80% to 100%),–,A (Fresh weight inhibition rate≥80% to 100%),A (Fresh weight inhibition rate≥80% to 100%),–,–,–,–,–
C=C(C)CS(=O)(=O)c1c(S(C)(=O)=O)ccc(C(=O)Nc2nnc(C)o2)c1Cl [Compound 3-146],B (Fresh weight inhibition rate≥260% to <80%),A (Fresh weight inhibition rate≥80% to 100%),A (Fresh weight inhibition rate≥80% to 100%),A (Fresh weight inhibition rate≥80% to 100%),–,–,–,–,–,–
Cc1nnc(NC(=O)c2ccc(S(C)(=O)=O)c(SCC(F)(F)C(F)(F)F)c2Cl)o1 [Compound 3-172],A (Fresh weight inhibition rate≥80% to 100%),A (Fresh weight inhibition rate≥80% to 100%),A (Fresh weight inhibition rate≥80% to 100%),A (Fresh weight inhibition rate≥80% to 100%),–,–,–,–,–,–
Cc1nnc(NC(=O)c2ccc(S(C)(=O)=O)c(SC(C)C#N)c2Cl)o1 (stereo not drawn) [Compound 3-202],B (Fresh weight inhibition rate≥260% to <80%),B (Fresh weight inhibition rate≥260% to <80%),–,A (Fresh weight inhibition rate≥80% to 100%),A (Fresh weight inhibition rate≥80% to 100%),–,–,–,–,–
CS(=O)(=O)c1ccc(C(=O)Nc2nnco2)c(Cl)c1S(=O)(=O)CCC#N [Compound 3-377],–,A (Fresh weight inhibition rate≥80% to 100%),A (Fresh weight inhibition rate≥80% to 100%),A (Fresh weight inhibition rate≥80% to 100%),C (Fresh weight inhibition rate≥40% to <60%),–,–,–,–,–
CCc1nnc(NC(=O)c2ccc(S(C)(=O)=O)c(SCC(F)F)c2Cl)o1 [Compound 3-444],B (Fresh weight inhibition rate≥260% to <80%),–,–,A (Fresh weight inhibition rate≥80% to 100%),A (Fresh weight inhibition rate≥80% to 100%),–,–,–,–,–
C=CCSc1c(S(C)(=O)=O)ccc(C(=O)Nc2nnc(CC)o2)c1Cl [Compound 3-454],A (Fresh weight inhibition rate≥80% to 100%),A (Fresh weight inhibition rate≥80% to 100%),–,A (Fresh weight inhibition rate≥80% to 100%),A (Fresh weight inhibition rate≥80% to 100%),–,–,–,–,–
CCCSc1c(S(C)(=O)=O)ccc(C(=O)Nc2nnc(C3CC3)o2)c1Cl [Compound 3-615],A (Fresh weight inhibition rate≥80% to 100%),A (Fresh weight inhibition rate≥80% to 100%),A (Fresh weight inhibition rate≥80% to 100%),A (Fresh weight inhibition rate≥80% to 100%),–,–,–,–,–,–
"CC(C)Sc1c(S(C)(=O)=O)ccc(C(=O)Nc2nnc(C3CC3)o2)c1Cl [Compound 3-620, 2-chloro-N-(5-cyclopropyl-1,3,4-oxadiazol-2-yl)-3-(isopropylthio)-4-(methylsulfonyl)benzamide]",–,–,–,–,–,80 to 260%,80 to 260%,80 to 100%,80 to 100%,–
"CCCSc1c(S(C)(=O)=O)ccc(C(=O)Nc2nonc2C)c1Cl [Compound 4-1, 2-chloro-N-(4-methyl-1,2,5-oxadiazol-3-yl)-4-(methylsulfonyl)-3-(propylthio)benzamide]",–,–,–,–,–,80 to 100%,80 to 100%,80 to 100%,–,80 to 100%
Cc1nonc1NC(=O)c1ccc(S(C)(=O)=O)c(S(=O)(=O)C(C)C)c1Cl [Compound 4-10],B (Fresh weight inhibition rate≥260% to <80%),A (Fresh weight inhibition rate≥80% to 100%),–,A (Fresh weight inhibition rate≥80% to 100%),A (Fresh weight inhibition rate≥80% to 100%),–,–,–,–,–

# Source: patent publication US20250223268A1, “4-Methylsulfonylbenzamide Compound, Preparation Method, Herbicidal Composition And Use” (Jiangsu Flag Chemical Industry Co., Ltd., priority 2022, published 2025)
